# Measured values taken from patent US12605350B2, “Composition for preventing, ameliorating, or treating disease caused by nitration of tyrosine in proteins comprising tyrosine as effective component” (INDUSTRY-ACADEMIC COOPERATION FOUNDATION GYEONGSANG …, priority 2020, dated 2026).
# How the values were obtained:
# Format in all cases: in vivo, mouse
# [1] = system: acute renal failure caused by kidney ischemia or reperfusion injury; assay: ROS/RNS amount in mitochondria, renal ischemia and reperfusion; conditions: L-tyrosine 100 mg/kg oral for 4 days, IR
# Procedure: C57BL/6 male mouse (23 to 25 g, KOATECH, South Korea) was allowed to have free access to diets and water in sterile breeding room with constant temperature and humidity. The animals were divided into 3 test groups, i.e., 1) Control group (Sham), 2) Renal ischemia having treatment with prepared solvent and induced reperfusion group (CMC+IR), and 3) Renal ischemia having treatment with L-tyrosine and induced reperfusion group (L-Tyr+IR).
# L-Tyrosine (100 mg/kg) was suspended in 0.5% CMC (carboxymethyl cellulose). The animal was orally administered, once a day for 4 days, with L-tyrosine or the prepared solvent CMC. Thirty minutes after the oral administration on Day 4, renal ischemia was caused. Specifically, the animal abdomen was cut and renal pedicles at both sides were clamped using a Muller atraumatic vascular clamp to cause renal ischemia. After 25 minutes of blood ischemia, the clamp was removed followed by reperfusion. The control group (Sham) received the same operational procedures as above except the ischemia using clamp. Twenty-four hours after the reperfusion, the test animal was sacrificed, blood was collected from the heart, and the tissues were harvested.
# [2] = system: chronic immobilization stress group (STR); assay: SPT (sucrose preference test) after chronic immobilization stress; conditions: tyrosine diet (181.2 mg/kg) compared to normal diet, p<0.01
# Procedure: The animal models were divided into two groups (i.e., normal group and stress group). The animal of stress group was individually brought by force to a restrainer for 2 hours every day (i.e., between 2 PM and 4 PM) so that it was applied with chronic immobilization stress for 15 days. Change in bodyweight and food intake amount were measured every other day.
# The normal group and stress group were divided again into a normal diet group and a tyrosine-supplemented diet group (181.2 mg/kg), and then fed.
# For SPT (sucrose preference test), 0.1 M sucrose and water were provided for 48 hours so that the animals are habituated with them. After that, none of 0.1 M sucrose and water was provided for 24 hours, and then 0.1 M sucrose and water were provided again for 6 hours. Then, 0.1 M sucrose and water were moved to different positions for 3 hours.
# After that, consumption amount of sucrose and water was measured, and the sugar preference was calculated in terms of the ratio of provided sucrose compared to total consumption amount.
# [3] = system: glutamine synthetase (GS); assay: activity of glutamine synthetase (GS) in lysate of cerebral motor cortex, endothelin-1 stroke model; conditions: Tyr diet (905 mg/kg L-Tyr)
# Procedure: The mouse was anesthetized by intraperitoneal injection of avertin as an anesthetic (0.5 ml/25 g of mouse bodyweight). Thereafter, endothelin-1 was injected (2 μg) to the cerebral motor cortex area (with bregma at the center, AP 1.5 mm, ML-1.5 mm, and DV 1.8 mm) by stereotaxic surgery. The injection was made at speed of 0.3 μl per minute. The needle was left for about 5 minutes after completing the injection so that endothelin-1 can be fully absorbed in animal tissues. After suturing the skin, the animal was allowed to recover in the original cage.
# To a 96-well plate, 2 μl of lysate of cerebral motor cortex were added, and then adjusted to 50 μl by additionally adding 50 mM imidazole-HCl buffer solution (pH 6.8). After adding 50 μl of GS activity assay buffer solution (50 mM imidazole-HCl, pH 6.8, 25 mM L-glutamine, 12.5 mM hydroxylamine, 12.5 mM sodium arsenate, 1 mM MnCl2 and 0.08 mM ADP), the reaction was allowed to occur at 37° C. for 30 to 60 minutes.
# Upon the completion of the reaction, γ-glutamylhydroxamate as a reference material was added to an empty well (0.391 to 25.0 mM). To the sample and reference material, 100 μl of reaction termination solution (90 mM FeCl3, 1.8 N HCl and 1.45% trichloroacetic acid) were added and absorbance at a wavelength of 560 nm was measured. Based on comparison with standard curve, GS activity was obtained for each sample. […]
smiles,measurement,setting,value
N[C@@H](Cc1ccc(O)cc1)C(=O)O [tyrosine],ROS/RNS amount in mitochondria,[1],suppressed
same,sugar preference,[2],statistically significant increase in the sugar preference
same,GS activity of the tissues (cerebral motor cortex),[3],the activity can be maintained
